# Source: paper PMC5077133, “Towards Development of Small Molecule Lipid II Inhibitors as Novel Antibiotics” (PLoS ONE, 2016)
# Experiments:
# [1] = system: E. faecalis (n=5) clinical isolates; experiment: Activity against Enterococcus spp. (MIC); format: cell-based; details: clinical isolates sensitive to linezolid and daptomycin
# Protocol: Determination of the Minimal Inhibitory Concentrations (MIC) by dilution was carried out by broth dilution according to CLSI standards.
# [2] = system: Enterococcus faecalis EF1509; experiment: Murine peritoneal sepsis model; format: in vivo, C57BL/6J mice; details: 6jc48-1 100 mg/kg, ampicillin 300 mg/kg
# From the text: Care of the mice met or exceeded the standards set forth by the National Institute of Health Guide for the care and use of laboratory animals and the AVMA panel on Euthanasia. All procedures in this study have been approved by the Institutional Animal Care and Use Committee (IACUC) at the University of Maryland Baltimore School of Medicine (Protocol number 02122005). Adult C57BL/6J mice (~18 grams, 8–10 weeks old) were used for all experiments. Mice were obtained from the Jackson Laboratory (Bar Harbor, Maine, USA) and housed in the IHV SPC animal core facility. Mice were fed standard chow (Harlan Laboratories) and water ad libitum. […] Infected animals (n = 5) were subsequently treated by intraperitoneal injection 30 min post-infection with 100 mg/kg of compound in 300 μL sterile saline solution, 5% Tween 80, 10% DMSO (V/V), ampicillin (300mg/kg), or vehicle (sterile saline solution, 5% Tween 80, 10% DMSO (V/V)) as positive and negative controls, respectively. Animals were closely observed during a period of 24 h and mice that show signs of severe sepsis were humanely euthanized. Mice were anesthetized by intraperitoneal injection of ketamine (80-100mg/kg) and xylazine (10–15 mg/kg). Once sedated, blood was collected by cardiac puncture. Immediately after blood collection the mice were euthanized by cervical dislocation. Spleens were harvested aseptically, weighed and homogenized in 500 μl of sterile saline solution using an IKA T10 basic disperser (IKA, Wilmington NC). Spleen homogenates were serially diluted and plated onto BHI agar plates. Bacterial counts were determined following 24 h incubation at 37°C and expressed as CFU per gram for spleen.
# We established a murine model for sepsis to evaluate the efficacy of 6jc48-1 as an antibiotic agent in vivo. […] Based on the data obtained in the pharmacokinetic analysis, mice (n = 5) were inoculated intraperitoneally with E. faecalis EF1509 (~5 x 10^8 CFU/ animal) and treated after 30 min with compound 6jc48-1 (100 mg/kg IP), ampicillin (300 mg/kg IP) or vehicle. Animals were monitored for survival and after 24 h spleen samples were collected and analyzed for the presence of bacteria. Bacterial counts were determined by plating serial dilutions on BHI agar plates and compared to control treatment with ampicillin as measures of efficacy (Fig 5).
# [3] = Liver microsome stability; format: in vitro ADME; details: human, human liver microsomes, pH 7.4
# Protocol: The in vitro microsome stability assay was performed using human liver microsomes and a Biomek FXP liquid handling workstation to deliver reagents to a 96 deep well plate on a shaking peltier with temperature controls. Human liver microsomes were purchased from Corning®. The test compound was incubated in an aqueous reaction mixture (200 ul total volume) consisting of human liver microsomes (150 mixed donor pool) and NADPH Regenerating System Solutions A and B (Corning®) in the presence of 100 mM potassium phosphate buffer (pH 7.4). The NADPH solution A comprises nicotinamide adenine dinucleotide phosphate (NADP+) and glucose 6-phosphate and solution B contains glucose-6-phosphate dehydrogenase. Solutions A and B were combined prior to adding to the reaction plate to generate a supply of NADPH. The NADPH was added last to simultaneously initiate the reactions. The final concentration of the test compound was 10 uM and the microsomal protein concentration was 0.5 mg/ml. After incubation at 37°C, the reaction was terminated at 0, 5, 10, 20, 30, 40, 50 and 60 minutes, respectively, by the addition of 600 uL of acetonitrile. Three replicates were run for each time point. The quenched reaction plate was centrifuged at 4500 rpm for 10 minutes. The supernatant was diluted 1:2 in 30% Methanol in water for LC/MS/MS analyses to monitor substrate depletion. Water was substituted for NADPH for the zero time-point samples. A control plate, without NADPH cofactor, was completed on the same day, using the same conditions.
# The half-life (t1/2) was obtained using the equation below: t1/2=−0.693/slope
# Where slope is the slope of the line formed by ln(% remaining test compound) vs. time. The in vitro intrinsic clearance (CLint) value was calculated using equation: CLint=(0.693/t1/2)(incubation volume(ul)/total microsomal protein(mg))
smiles,measurement,setting,value
CN[C@H](CC(C)C)C(=O)N[C@H]1C(=O)N[C@@H](CC(N)=O)C(=O)N[C@H]2C(=O)N[C@H]3C(=O)N[C@H](C(=O)N[C@H](C(=O)O)c4cc(O)cc(O)c4-c4cc3ccc4O)[C@H](O)c3ccc(c(Cl)c3)Oc3cc2cc(c3O[C@@H]2O[C@H](CO)[C@@H](O)[C@H](O)[C@H]2O[C@H]2C[C@](C)(N)[C@H](O)[C@H](C)O2)Oc2ccc(cc2Cl)[C@H]1O [Vancomycin],Activity (MIC) E. faecalis (n=5) clinical isolates,[1],>32
"CC1(C)S[C@@H]2[C@H](NC(=O)[C@H](N)c3ccccc3)C(=O)N2[C@H]1C(=O)O [ampicillin, reference compound]",Bacterial counts in spleen,"[2]; IP treatment 30 min post-infection, spleen collected after 24 h",significant bacterial clearance
same,Survival of infected animals,"[2]; n = 5, IP treatment 30 min post-infection, length of the experiment (24 h)",all animals
"COc1ccc2c(c1)[C@]13CCCC[C@@H]1[C@H](C2)N(C)CC3 [dextromethorphan, reference compound]",microsomal CLint at 10 uM,[3]; read-out: Liver microsome intrinsic clearance (positive control),31 µL/min/mg
same,half-life at 10 uM,[3]; read-out: Liver microsome t1/2 (positive control),40 min
